Results as given in US20260167621A1, “Three Cluster Galactose Type Compound, Conjugate, Making Method and Use Thereof” (GUANGZHOU RIBOBIO CO., LTD., priority 2023, published 2026).

Key:
PCSK9 mRNA = experiment: Knock down effect on the expression of PCSK9 mRNA in Hep3B cell; assay type: cell-based, human; details: Lipofectamine 3000 transfection, qPCR, actin as reference gene
Experimental: Referring to Chinese Patent Application No. CN109957567B, the synthesized siRNA sequences were shown below:
The compound G2, G4, G5 obtained from the examples 2, 4, 5, bound to the above mentioned siRNA respectively to form conjugates which were shown in Table 4.
Hep3B cell (ATCC, HB-8064) was cultured, the cell density was about 30% to 50% before transfection and relatively uniformly.
Each conjugate samples of Table 4 were prepared to 20 μM storage solution, and were set as experimental groups. Except the experimental groups, normal cell control group (Blank), transfection reagent control group (Mock), negative control group 1 (NC001, Ribobio, siM21 1215011852) and negative control group 2 (NC002, Ribobio, siM21 1215011852) were also set. Referring to the specification of Lipofectamine™ 3000 transfection reagent (Thermo Fisher, L300001), cells were transfected. Both the experimental groups and the control groups had 3 replicates.
The total RNA extraction was performed with reference to the specification of MagZol Reagent (Magen, R4801).
The reverse transcription was performed with reference to the specification of riboSCRIPT™ Reverse Transcription Kit (Ribobio, C11027-2).
Human house keeping gene actin was used for reference gene, forward primer sequence of actin gene: 5′-[…]-3′ (SEQ ID NO: 5), reverse primer sequence: 5′-[…]-3′ (SEQ ID NO: 6); forward primer sequence of human PCSK9 gene: 5′-[…]-3′ (SEQ ID NO: 7), reverse primer sequence: 5′-[…]-3′ (SEQ ID NO: 8). 2×SYBR Green Mix (Ribobio, C10712F −1 m l) and fluorescence quantitative PCR instrument (BioRad, CFX96) were used to perform real time fluorescence quantitative PCR reaction. After PCR reaction, the Ct deviation of 9 replicates of a sample (3 transfection replicates×3 qPCR duplicates) should be ±0.5. Then CFX 2.1 software was used for quantitative analysis.

[1] = target: T1, Hepatocyte ASGPR receptor (Homo sapiens, UniProt P07306); experiment: Binding affinity test with hepatocyte ASGPR receptor (Cy5 flow cytometry, binding saturation curve); details: for Bmax: average Cy5 fluorescence intensity of live cells minus blank, one site binding (hyperbola) fit; for Bmax / Kd: 0.9-100 nM, 2 hours on ice; for Kd: one site binding (hyperbola) fit of Cy5 fluorescence, read-out: Kd (dissociation equilibrium constant); for binding affinity with ASGPR receptor: statement in words from Table 3
T1 construct: endogenous in cells
T1 sequence (P07306 1-291): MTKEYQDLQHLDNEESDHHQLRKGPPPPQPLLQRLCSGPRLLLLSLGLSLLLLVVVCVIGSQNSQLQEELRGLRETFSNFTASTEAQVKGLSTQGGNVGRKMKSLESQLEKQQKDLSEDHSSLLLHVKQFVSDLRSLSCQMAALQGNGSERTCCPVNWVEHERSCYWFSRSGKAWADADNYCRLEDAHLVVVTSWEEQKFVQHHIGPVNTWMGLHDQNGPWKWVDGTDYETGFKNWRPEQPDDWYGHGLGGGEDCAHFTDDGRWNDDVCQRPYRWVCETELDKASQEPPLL
T1 sequence (P07307 1-311 partner): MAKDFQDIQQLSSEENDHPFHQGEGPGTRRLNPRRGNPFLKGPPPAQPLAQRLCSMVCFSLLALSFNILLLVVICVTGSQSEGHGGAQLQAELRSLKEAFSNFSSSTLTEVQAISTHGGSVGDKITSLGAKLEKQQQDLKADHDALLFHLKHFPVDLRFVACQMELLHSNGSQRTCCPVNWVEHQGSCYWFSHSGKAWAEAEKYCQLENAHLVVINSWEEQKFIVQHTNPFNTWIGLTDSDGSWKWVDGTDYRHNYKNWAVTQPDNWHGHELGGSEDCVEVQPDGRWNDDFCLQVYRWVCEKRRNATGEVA
Experimental: Embodiment 1: Binding Affinity Test with Hepatocyte ASGPR Receptor
The compound G1, G4, G5 obtained from the examples 1, 4, 5, bound to the above mentioned siRNA respectively to form conjugates which were shown in Table 1.
G1-12, G4-12, G5-12 (1 uM) were diluted respectively in a gradient according to the following Table 2.
The cell concentration was diluted by DMEM culture medium with 2% FBS to 4*10^5 cells/mL.
200 μL cells of each sample and 200 μL siRNA were mixed uniformly, 200 μL cells of the blank control group and 200 μL culture medium were mixed uniformly, and were added in 3 wells of 96-well plate with U-shaped bottom, 100 μL each well. Samples of each concentration of all siRNA were placed in the ice box after sampling, and were placed in decolorization shaker and incubated in dark for 2 hours.
50 g of 96-well plate with U-shaped bottom was centrifuged for 2 minutes at 4° C. 80 μL supernatant was aspirated and discarded by pipette, 10 μg/mL propidium iodide was prepared by using of PBS with 2% FBS, 100 μL PI reagent was added in each well and was stained for 15 minutes. After staining, 50 g of 96-well plate with U-shaped bottom was centrifuged for 2 minutes at 4° C. After washed by PBS with 2% FBS for twice, 100 μL PBS with 2% FBS was added for resuspension, flow cytometer was used to test and count the average Cy5 fluorescence intensity of live cell population.

| Substance | PCSK9 mRNA relative expression value, the average relative expression (PCSK9 mRNA) | Bmax [1] | Kd [1] | binding affinity with ASGPR receptor [1] |
| --- | --- | --- | --- | --- |
| G2-34: G2 bound to 5' end of SEQ ID NO: 3, paired with 5'-phos* SEQ ID NO: 4 (PCSK9 siRNA); structure Z2 (sense GGUCUGGAAUGCAAAGUCA; antisense UGACUUUGCAUUCCAGACC; G2 ligand 5'; 5'-phosphate; modified_base join(1,4,5,6,10,11,12,13,14,15,16) OTHER; 2'-O-methyl modification; modified_base join(2,3,17,18,19) OTHER; thiophosphorylated skeleton modification and 2'-O-methyl modification; modified_base join(7,8,9) OTHER; 2'-fluoro modification; modified_base join(1,5,7,9,11,13,15) OTHER; modified_base join(3,17,18,19) OTHER; modified_base 2 OTHER; thiophosphorylated skeleton modification and 2'-fluoro modification; modified_base join(4,6,8,10,12,14,16) OTHER) [Compound G2-34] | 0.34 | – | – | – |
| G4-12: G4 bound to 5' end of SEQ ID NO: 1 via C6 amino modification, paired with 5'-Cy5 SEQ ID NO: 2; structure Z4 (sense GUAUGUUGCCCGUUUGUCC; antisense GGACAAACGGGCAACAUACCU; G4 ligand via C6 amino; Cy5 label; modified_base join(1,5,8,12,16) OTHER; deoxyribonucleotide modification; modified_base 3 OTHER; thiophosphorylated skeleton modification and deoxyribonucleotide modification; modified_base join(4,6,7,9,10,11,13,14,15,17) OTHER; 2'-fluoro modification; modified_base join(2,18,19) OTHER; thiophosphorylated skeleton modification and 2'-fluoro modification; modified_base join(1,5,7,9,11,13,15,17) OTHER; 2'-O-methyl modification; modified_base join(3,19,20,21) OTHER; thiophosphorylated skeleton modification and 2'-O-methyl modification; modified_base join(2,4) …) [Compound G4-12] | – | 239297 | 6.37 nM | reach a higher level |
| G4-34: G4 bound to 5' end of SEQ ID NO: 3 via C6 amino modification, paired with 5'-phos* SEQ ID NO: 4; structure Z4 (sense GGUCUGGAAUGCAAAGUCA; antisense UGACUUUGCAUUCCAGACC; G4 ligand via C6 amino; 5'-phosphate; modified_base join(1,4,5,6,10,11,12,13,14,15,16) OTHER; 2'-O-methyl modification; modified_base join(2,3,17,18,19) OTHER; thiophosphorylated skeleton modification and 2'-O-methyl modification; modified_base join(7,8,9) OTHER; 2'-fluoro modification; modified_base join(1,5,7,9,11,13,15) OTHER; modified_base join(3,17,18,19) OTHER; modified_base 2 OTHER; thiophosphorylated skeleton modification and 2'-fluoro modification; modified_base join(4,6,8,10,12,14,16) OTHER) [Compound G4-34] | 0.41 | – | – | – |
| G5-12: G5 bound to 5' end of SEQ ID NO: 1 via C6 amino modification, paired with 5'-Cy5 SEQ ID NO: 2; structure Z5 (sense GUAUGUUGCCCGUUUGUCC; antisense GGACAAACGGGCAACAUACCU; G5 ligand via C6 amino; Cy5 label; modified_base join(1,5,8,12,16) OTHER; deoxyribonucleotide modification; modified_base 3 OTHER; thiophosphorylated skeleton modification and deoxyribonucleotide modification; modified_base join(4,6,7,9,10,11,13,14,15,17) OTHER; 2'-fluoro modification; modified_base join(2,18,19) OTHER; thiophosphorylated skeleton modification and 2'-fluoro modification; modified_base join(1,5,7,9,11,13,15,17) OTHER; 2'-O-methyl modification; modified_base join(3,19,20,21) OTHER; thiophosphorylated skeleton modification and 2'-O-methyl modification; modified_base join(2,4) …) [Compound G5-12] | – | 199232 | 3.69 nM | reach a higher level |
| G5-34: G5 bound to 5' end of SEQ ID NO: 3 via C6 amino modification, paired with 5'-phos* SEQ ID NO: 4; structure Z5 (sense GGUCUGGAAUGCAAAGUCA; antisense UGACUUUGCAUUCCAGACC; G5 ligand via C6 amino; 5'-phosphate; modified_base join(1,4,5,6,10,11,12,13,14,15,16) OTHER; 2'-O-methyl modification; modified_base join(2,3,17,18,19) OTHER; thiophosphorylated skeleton modification and 2'-O-methyl modification; modified_base join(7,8,9) OTHER; 2'-fluoro modification; modified_base join(1,5,7,9,11,13,15) OTHER; modified_base join(3,17,18,19) OTHER; modified_base 2 OTHER; thiophosphorylated skeleton modification and 2'-fluoro modification; modified_base join(4,6,8,10,12,14,16) OTHER) [Compound G5-34] | 0.33 | – | – | – |
